Drawing on ChEMBL document CHEMBL4261583, “Discovery of potent calpain inhibitors based on the azolo-imidazolidenone scaffold” (Eur J Med Chem, 2018), this text covers inhibition, IC50 and Activity for 18 molecules.

Activity calls are given as the source filed them. No cut-off for these calls is given here.

Data set [1] deals with T1, Calpain-1 catalytic subunit (Homo sapiens) (UniProt P07384).
T1 sequence (whole entry): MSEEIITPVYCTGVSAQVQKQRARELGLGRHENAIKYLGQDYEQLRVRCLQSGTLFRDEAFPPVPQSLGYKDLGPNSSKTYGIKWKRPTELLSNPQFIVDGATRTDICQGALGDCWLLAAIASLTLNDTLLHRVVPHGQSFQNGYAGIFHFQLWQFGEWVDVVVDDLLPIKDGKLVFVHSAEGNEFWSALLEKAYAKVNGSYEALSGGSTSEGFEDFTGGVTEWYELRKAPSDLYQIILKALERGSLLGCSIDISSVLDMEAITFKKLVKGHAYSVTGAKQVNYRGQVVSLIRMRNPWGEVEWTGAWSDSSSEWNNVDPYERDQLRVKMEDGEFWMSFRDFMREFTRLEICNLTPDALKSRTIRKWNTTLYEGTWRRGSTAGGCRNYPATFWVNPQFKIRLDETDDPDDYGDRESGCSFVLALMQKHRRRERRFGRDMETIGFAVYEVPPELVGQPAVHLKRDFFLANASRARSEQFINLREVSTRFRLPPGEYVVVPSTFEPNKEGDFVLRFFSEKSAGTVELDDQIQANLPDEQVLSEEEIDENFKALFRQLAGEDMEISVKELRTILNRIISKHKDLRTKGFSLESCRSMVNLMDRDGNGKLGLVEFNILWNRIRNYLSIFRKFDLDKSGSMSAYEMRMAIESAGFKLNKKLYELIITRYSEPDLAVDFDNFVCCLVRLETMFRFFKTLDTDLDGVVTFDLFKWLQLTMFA
Kind of data set: Inhibition of calpain (unknown origin) at 1 uM using Suc-LY-AMC as fluorogenic substrate after 60 mins by spectrofluorometric analysis relative to calpeptin.

Data set [2] addresses T2, Calpain-1 catalytic subunit (Homo sapiens, UniProt P07384).
T2 sequence (P07384 whole entry): T1 sequence (whole entry)
Kind of data set: Inhibition of calpain (unknown origin) using Suc-LY-AMC as fluorogenic substrate after 60 mins by spectrofluorometric analysis.

Data set [3] deals with T1, Calpain-1 catalytic subunit (Homo sapiens). Kind of data set: Uncompetitive inhibition of calpain (unknown origin) at 1 to 10 uM using Suc-LY-AMC as fluorogenic substrate after 60 mins by Lineweaver-Burk plot analysis.
The subject of data set [4] is HK-2. In words: Cytotoxicity against human HK2 cells at 0.1 to 10 uM after 24 hrs by MTT assay. The format is cell-based. Conditions: hk-2, 24 h.
Data set [5] relates to HK-2. In words: Cytoprotective activity against NaN3-induced apoptosis in human HK2 cells at 0.1 to 10 uM pre-incubated with NaN3 for 30 mins followed by 24 hrs recovery with compound propidium iodide staining-based flow cytometric analysis. The format is functional, cell-based.
Data set [6] deals with HK-2. In words: Cytoprotective activity against NaN3-induced apoptosis in human HK2 cells at 1 uM pre-incubated with 200 mM NaN3 for 30 mins followed by 24 hrs recovery with compound propidium iodide staining-based flow cytometric analysis (reference value: 27.3 +/- 4.9%). The format is functional.
Data set [7] concerns HK-2. Kind of data set: Induction of apoptosis in human HK2 cells at 1 uM after 24 hrs by propidium iodide staining-based flow cytometric analysis (reference value: 3.8 +/- 1%). It is filed as cell-based. Conditions: hk-2, 24 h.

In data set [1], `O=C1/C(=C(\NCc2ccccc2)c2cc3cccnc3[nH]2)N=CN1Cc1ccccc1` gave an inhibition of 11.7%. In the case of `COCCN/C(=C1/N=CN(CCOC)C1=O)c1[nH]c2ccccc2c1Cl`, the IC50 in data set [2] is above 1 µM. Besides, the inhibition in data set [1] was determined as 71.9%. `O=C1/C(=C(\NC2CCCCC2)c2cc3cccnc3[nH]2)N=CN1C1CCCCC1` had an inhibition in data set [1] of 4.5%.

`CCCCN/C(=C1/N=CN(CCOC)C1=O)c1cc2ccccc2[nH]1` gave an IC50 in data set [2] of 0.35 µM. In data set [1], this molecule returned an inhibition of 75.4%. In turn, `CC(C)N/C(=C1/N=CN(C(C)C)C1=O)c1cc2ccccc2[nH]1` displayed an IC50 in data set [2] above 1 µM. Moreover, the inhibition in data set [1] turned out to be 57.8%. The like results for `COCCN1C=N/C(=C(/NCCN(C)C)c2cc3ccccc3[nH]2)C1=O` were, in that order, above 1 µM and 64.6%. For `COCCN/C(=C1/N=CN(CCOC)C1=O)c1cc2cccnc2[nH]1` the same measures were 0.38 µM and 79.4%. `COCCN/C(=C1/N=CN(CCOC)C1=O)c1[nH]c2ccccc2c1I` came in with an IC50 in data set [2] of 1.08 µM. This molecule also came in with an inhibition in data set [1] of 76.8%. `COCCN/C(=C1/N=CN(CCOC)C1=O)c1[nH]c2ccccc2c1Br`: the concentration for half-maximal inhibition (IC50) in data set [2] was above 1 µM. The molecule further had an inhibition in data set [1] of 62.9%. For `COCCN/C(=C1/N=CN(CCOC)C1=O)c1cc2ccccc2[nH]1`, the inhibition result in data set [3] was “Active”. The Activity entry in data set [4] is on record as “Non-Toxic”. In data set [2], this molecule gave an IC50 of 0.46 µM. In addition, in data set [1], the inhibition is 73.7%. The result in data set [5] was Active. The molecule `COCCCN/C(=C1/N=CN(CCOC)C1=O)c1cc2ccccc2[nH]1` registered an IC50 in data set [2] of 1.02 µM. Further, the inhibition in data set [1] was 71.8%. As for `CCCC[C@@H](C=O)NC(=O)[C@H](CC(C)C)NC(=O)OCc1ccccc1` [CALPEPTIN], the Activity in data set [6] was 9.9%; in data set [7], 5.9%. In data set [1], `O=C1/C(=C(\NCc2ccccc2)c2cc3ccccc3[nH]2)N=CN1Cc1ccccc1` came in with an inhibition of 28.2%. Consider `COCCN/C(=C1/N=C(C)N(CCOC)C1=O)c1cc2ccccc2[nH]1`, for which, in data set [2], the IC50 stood at 0.02 µM. Further, the inhibition in data set [1] was found to be 93%. Consider `COCCN/C(=C1/N=C(c2ccccc2)N(CCOC)C1=O)c1cc2ccccc2[nH]1`, for which the IC50 in data set [2] was above 1 µM. The molecule also returned an inhibition in data set [1] of 21.5%. In data set [1], `CCCCN/C(=C1/N=CN(CCCC)C1=O)c1cc2ccccc2[nH]1` gave an inhibition of 14%.

In data set [1], `CC(C)N/C(=C1/N=CN(C(C)C)C1=O)c1cc2cccnc2[nH]1` showed an inhibition of 37.2%. Turning to `O=C1/C(=C(\NC2CCCCC2)c2cc3ccccc3[nH]2)N=CN1C1CCCCC1`, the inhibition in data set [1] is 9%.
